Laboratory results reported in article PMC3529812 (Journal of immunology (Baltimore, Md. : 1950), 2012).

What was measured:
HLA-A2 = HLA-A2 (Homo sapiens, UniProt P04439, D140Y/D185E/D98H/E176V/E277Q/G131W/G231S/I119V/I121R/I166T/I218V/L300P/L318F/N151K/N90K/P208A/P217A/Q86G/Q94H/R138H/R169H/T345S); experiment: T2 HLA-A2 stabilization assay; format: cell-based
20S proteasome = 20S proteasome cleavage assay with LC-MS of cleavage products; format: biochemical, human; conditions: 10 μM lactacystin; substrate 23 mer; compared to uninhibited proteasome reaction

Compound	EC50 (HLA-A2) [nM]	Effect of lactacystin on generation of p373–382 by proteasome (20S proteasome)
CC(C)C[C@H](NC(=O)[C@@H](N)CO)C(=O)N[C@@H](C)C(=O)N[C@@H](Cc1ccccc1)C(=O)N[C@@H](CC(C)C)C(=O)N1CCC[C@H]1C(=O)N[C@@H](CCC(=O)O)C(=O)N[C@@H](CO)C(=O)N[C@@H](Cc1ccccc1)C(=O)N[C@@H](CC(=O)O)C(=O)O [p373–382]	1800	–
CC(=O)N[C@@H](CSC(=O)[C@]1([C@@H](O)C(C)C)NC(=O)[C@H](C)[C@@H]1O)C(=O)O [lactacystin]	–	not completely blocked
